Data from ChEMBL document CHEMBL2203067, “Peptide-chlorambucil conjugates combat pgp-dependent drug efflux” (ACS Med Chem Lett, 2011).
Active and inactive are the calls of the source. The calls are words filed in the database; no cut-off is given here.

How the values were obtained:
A2780 [1] = experiment: Inhibition of Pgp-mediated drug efflux in human A2780 cells overexpressing Pgp assessed as increase in intracellular adriamycin level at 5 uM after 40 mins by flow cytometry analysis; assay type: cell-based
A2780 [2] = experiment: Inhibition of Pgp-mediated drug efflux in adriamycin-resistant human A2780 cells assessed as increase in adriamycin uptake at 5 uM after 8 hrs by flow cytometry analysis; assay type: cell-based
A2780 [3] = experiment: Inhibition of Pgp-mediated drug efflux in adriamycin-resistant human A2780 cells assessed as increase in adriamycin-induced cytotoxicity at 5 uM after 8 hrs by CCK-8 assay; assay type: cell-based
[4] = Cellular uptake in adriamycin-resistant human A2780 cells plasma membrane at 5 uM after 5 mins by confocal microscopic analysis; assay type: ADME, cell-based; conditions: a2780, 5 min
A2780 [5] = experiment: Inhibition of Pgp-mediated drug efflux in adriamycin-resistant human A2780 cells assessed as increase in adriamycin uptake at 5 uM after 1 hr by flow cytometry analysis; assay type: cell-based
A2780 [6] = experiment: Inhibition of Pgp-mediated drug efflux in adriamycin-resistant human A2780 cells assessed as increase in adriamycin-induced cytotoxicity at 5 uM after 1 hr by CCK-8 assay; assay type: cell-based
A2780 [7] = experiment: Inhibition of Pgp-mediated drug efflux in adriamycin-resistant human A2780 cells assessed as increase in intracellular adriamycin level at 5 uM after 40 mins by flow cytometry analysis; assay type: cell-based
A2780 [8] = experiment: Cellular uptake in adriamycin-resistant human A2780 cells at 20 uM after 5 mins by confocal microscopic analysis; assay type: ADME, cell-based; conditions: a2780, 5 min
A2780 [9] = experiment: Inhibition of Pgp-mediated drug efflux in adriamycin-resistant human A2780 cells assessed as increase in intracellular actinomycin level at 5 uM after 40 mins by flow cytometry analysis; assay type: cell-based
A2780 [10] = experiment: Inhibition of Pgp-mediated drug efflux in adriamycin-resistant human A2780 cells assessed as localization of adriamycin from plasma membrane to intracellular sites at 5 uM after 5 mins by confocal microscopic analysis; assay type: cell-based
A2780 [11] = experiment: Inhibition of Pgp-mediated drug efflux in adriamycin-resistant human A2780 cells assessed as localization of MitoTracker from plasma membrane to intracellular sites at 5 uM after 5 mins by confocal microscopic analysis; assay type: cell-based
[12] = molecular target: ATP-dependent translocase ABCB1 (Homo sapiens, UniProt P08183); experiment: Inhibition of p-glycoprotein in adriamycin-resistant human A2780 cell at 5 uM after 40 mins by confocal microscopic analysis; conditions: a2780, 40 min
Sequence of ATP-dependent translocase ABCB1 (P08183 whole entry): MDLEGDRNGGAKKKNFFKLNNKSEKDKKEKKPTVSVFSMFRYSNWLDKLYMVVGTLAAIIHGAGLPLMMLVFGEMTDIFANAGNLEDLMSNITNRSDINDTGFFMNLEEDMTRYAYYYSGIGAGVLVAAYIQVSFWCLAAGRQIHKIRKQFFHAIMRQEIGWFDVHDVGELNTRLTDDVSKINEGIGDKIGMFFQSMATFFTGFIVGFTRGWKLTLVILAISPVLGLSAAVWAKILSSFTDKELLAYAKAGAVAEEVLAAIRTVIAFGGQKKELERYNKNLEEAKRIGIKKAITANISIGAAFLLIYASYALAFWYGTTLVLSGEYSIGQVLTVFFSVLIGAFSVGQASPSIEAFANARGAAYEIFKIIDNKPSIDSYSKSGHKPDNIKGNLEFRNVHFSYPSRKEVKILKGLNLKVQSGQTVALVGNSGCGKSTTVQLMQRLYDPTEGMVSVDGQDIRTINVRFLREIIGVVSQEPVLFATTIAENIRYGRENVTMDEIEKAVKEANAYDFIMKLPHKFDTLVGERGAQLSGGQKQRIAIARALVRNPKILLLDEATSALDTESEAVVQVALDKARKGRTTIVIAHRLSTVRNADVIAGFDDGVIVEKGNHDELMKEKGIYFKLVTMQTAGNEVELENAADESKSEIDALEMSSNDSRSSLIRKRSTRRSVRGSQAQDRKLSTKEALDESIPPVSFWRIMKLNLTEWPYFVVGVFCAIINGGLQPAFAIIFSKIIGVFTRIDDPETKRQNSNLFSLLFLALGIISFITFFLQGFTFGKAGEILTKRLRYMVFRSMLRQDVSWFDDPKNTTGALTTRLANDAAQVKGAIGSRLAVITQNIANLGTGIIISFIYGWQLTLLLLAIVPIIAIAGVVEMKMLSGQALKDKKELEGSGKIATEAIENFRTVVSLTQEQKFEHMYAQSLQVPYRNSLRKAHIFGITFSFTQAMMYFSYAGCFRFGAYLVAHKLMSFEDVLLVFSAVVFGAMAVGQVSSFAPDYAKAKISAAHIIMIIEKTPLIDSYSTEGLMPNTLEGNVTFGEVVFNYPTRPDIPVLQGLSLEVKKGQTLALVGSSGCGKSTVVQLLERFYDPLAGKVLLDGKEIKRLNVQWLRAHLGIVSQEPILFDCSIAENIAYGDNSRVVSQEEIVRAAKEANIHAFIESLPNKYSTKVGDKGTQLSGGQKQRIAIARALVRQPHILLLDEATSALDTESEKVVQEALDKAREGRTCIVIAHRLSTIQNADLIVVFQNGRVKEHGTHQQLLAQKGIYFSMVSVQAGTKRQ

[13] = Cellular uptake in adriamycin-resistant human A2780 cell plasma membrane at 5 uM after 40 mins by confocal microscopic analysis; assay type: ADME, cell-based; conditions: a2780, 40 min
A2780 [14] = experiment: Inhibition of Pgp in adriamycin-resistant human A2780 cells assessed as co-immunoprecipitation with biotin-Fxr3kCbl at 5 uM after 1 hr by immunoblotting analysis; assay type: cell-based
A2780 [15] = experiment: Inhibition of Pgp-mediated drug efflux in adriamycin-resistant human A2780 cells assessed as increase of MitoTracker accumulation at 5 uM after 5 mins by confocal microscopic analysis; assay type: cell-based
[16] = Cellular uptake in wild type human A2780 cell mitochondria at 5 uM after 40 mins by confocal microscopic analysis; assay type: ADME; conditions: a2780, 40 min
[17] = Cellular uptake in adriamycin-resistant human A2780 cell mitochondria at 5 uM after 40 mins by confocal microscopic analysis; assay type: ADME; conditions: a2780, 40 min

| SMILES | inhibition (A2780 [1]) | inhibition (A2780 [2]) | inhibition (A2780 [3]) [%] | Drug uptake [4] | inhibition (A2780 [5]) | inhibition (A2780 [6]) [%] | inhibition (A2780 [7]) | further results |
| --- | --- | --- | --- | --- | --- | --- | --- | --- |
| N=C(N)NCCC[C@@H](NC(=O)[C@H](CC1CCCCC1)NC(=O)[C@@H](CCCNC(=N)N)NC(=O)[C@H](CC1CCCCC1)NC(=O)[C@@H](CCCNC(=N)N)NC(=O)[C@@H](N)CC1CCCCC1)C(=O)N[C@@H](CCCCN)C(N)=O | inactive | – | – | – | – | – | – | – |
| CN1/C(=C\c2cc[n+](CCCCCC(=O)N[C@@H](Cc3ccncc3)C(=O)N[C@H](CCCNC(=N)N)C(=O)N[C@@H](Cc3ccncc3)C(=O)N[C@H](CCCNC(=N)N)C(=O)N[C@@H](Cc3ccncc3)C(=O)N[C@H](CCCNC(=N)N)C(=O)N[C@H](CCCCNC(=O)CCCc3ccc(N(CCCl)CCCl)cc3)C(N)=O)c3ccccc23)Sc2ccccc21 | – | inactive | 50 | Active | Active | 50 | Active | – |
| CN1/C(=C\c2cc[n+](CCCCCC(=O)N[C@@H](CCCNC(=N)N)C(=O)N[C@@H](CCCNC(=N)N)C(=O)N[C@@H](CCCNC(=N)N)C(=O)N[C@@H](CCCNC(=N)N)C(=O)N[C@@H](CCCNC(=N)N)C(=O)N[C@@H](CCCNC(=N)N)C(=O)N[C@H](CCCCNC(=O)CCCc3ccc(N(CCCl)CCCl)cc3)C(N)=O)c3ccccc23)Sc2ccccc21 | – | – | – | Not Active | – | – | Active | Drug uptake (A2780 [8]): Not Active |
| CN1/C(=C\c2cc[n+](CCCCCC(=O)N[C@@H](CC3CCCCC3)C(=O)N[C@H](CCCNC(=N)N)C(=O)N[C@@H](CC3CCCCC3)C(=O)N[C@H](CCCNC(=N)N)C(=O)N[C@@H](CC3CCCCC3)C(=O)N[C@H](CCCNC(=N)N)C(=O)N[C@H](CCCCNC(=O)CCCc3ccc(N(CCCl)CCCl)cc3)C(N)=O)c3ccccc23)Sc2ccccc21 | – | – | – | Active | – | – | Active | inhibition (A2780 [9]): Active |
| CN1/C(=C\c2cc[n+](CCCCCC(=O)N[C@@H](Cc3ccc(O)cc3)C(=O)N[C@H](CCCNC(=N)N)C(=O)N[C@@H](Cc3ccc(O)cc3)C(=O)N[C@H](CCCNC(=N)N)C(=O)N[C@@H](Cc3ccc(O)cc3)C(=O)N[C@H](CCCNC(=N)N)C(=O)N[C@H](CCCCNC(=O)CCCc3ccc(N(CCCl)CCCl)cc3)C(N)=O)c3ccccc23)Sc2ccccc21 | – | – | – | Not Active | – | – | Active | Drug uptake (A2780 [8]): Not Active |
| CN1/C(=C\c2cc[n+](CCCCCC(=O)N[C@@H](CC3CCCCC3)C(=O)N[C@H](CCCCN)C(=O)N[C@@H](CC3CCCCC3)C(=O)N[C@H](CCCCN)C(=O)N[C@@H](CC3CCCCC3)C(=O)N[C@H](CCCCN)C(=O)N[C@H](CCCCNC(=O)CCCc3ccc(N(CCCl)CCCl)cc3)C(N)=O)c3ccccc23)Sc2ccccc21 | – | inactive | 50 | – | Active | 50 | Active | – |
| O=C(O)CCCc1ccc(N(CCCl)CCCl)cc1 | inactive | – | – | – | – | – | – | – |
| CN1/C(=C\c2cc[n+](CCCCCC(=O)N[C@@H](CC3CCCCC3)C(=O)N[C@H](CCCNC(=N)N)C(=O)N[C@@H](CC3CCCCC3)C(=O)N[C@H](CCCNC(=N)N)C(=O)N[C@@H](CC3CCCCC3)C(=O)N[C@H](CCCNC(=N)N)C(=O)N[C@@H](CCCCNC(=O)CCCc3ccc(N(CCCl)CCCl)cc3)C(N)=O)c3ccccc23)Sc2ccccc21 | Active | – | – | – | – | – | – | inhibition (A2780 [10]): Active; inhibition (A2780 [11]): Active; inhibition (INH) [12]: Active; Drug uptake [13]: Active; inhibition (A2780 [14]): Active; inhibition (A2780 [15]): inactive; Drug uptake [16]: Active; Drug uptake [17]: Not Active |
| CN1/C(=C\c2cc[n+](CCCCCC(=O)N[C@@H](Cc3ccccc3)C(=O)N[C@H](CCCNC(=N)N)C(=O)N[C@@H](Cc3ccccc3)C(=O)N[C@H](CCCNC(=N)N)C(=O)N[C@@H](Cc3ccccc3)C(=O)N[C@H](CCCNC(=N)N)C(=O)N[C@H](CCCCNC(=O)CCCc3ccc(N(CCCl)CCCl)cc3)C(N)=O)c3ccccc23)Sc2ccccc21 | – | inactive | 50 | Active | Active | 50 | Active | – |
